Laboratory results: US4981860A, “Pyridinium nitrate, composition containing same and their use for inhibiting platelet activating factor” (Takeda Chemical Industries, Ltd., priority 1989, dated 1991)
Where two headings read alike, the source gives them in different places.

Tests used:
[1] = system: Reversed passive Arthus reaction; assay: Reversed passive Arthus reaction in rat; assay type: in vivo, rat (Sprague-Dawley); details: iv, given intravenously, read-out: ID50 (inhibition of Arthus reaction, area stained blue)
Protocol: Hair was removed at the back of a male Sprague-Dawley rat (7-week-old, weighing about 250 g) under slight anesthesia with ether and a solution of the test substance [the compound (6) obtained in the Production Example 1] in physiological saline was injected into the caudal vein at the dose of 0.2 ml per 100 g of body weight. Immediately 1 ml of 0.5% antigenic egg albumin solution in physiological saline was injected into the caudal vein. Immediately 0.1 ml of the rabbit anti-egg albumin antiserum (containing 6 mg protein antibody/ml) was given subcutaneously at a site each on the right and the left side of the back. Three hours later, 1 ml of 1% Evans Blue solution in physiological saline was injected intravenously, the skin was removed after 30 minutes, and the area stained blue was measured (in mm^2). The extent of inhibition was calculated by comparing the area with that in the group without treatment with the test substance.

[2] = system: endotoxin (ET)-induced death; assay: Inhibition of endotoxin (ET)-induced death in rats; assay type: in vivo, rat (SD)
Protocol: Method: Male SD rats were used. ET (E. Coli, 0111, B4) (15 mg/kg) was given i.v. 5 min after the injection of the compound (6) obtained in the Production Example 1.

[3] = system: PAF-induced rabbit platelet aggregation; assay: Inhibition of PAF-induced rabbit platelet aggregation (platelet rich plasma); assay type: cell-based; details: Oryctolagus cuniculus, read-out: rate of inhibition of PAF-induced rabbit platelet aggregation
Protocol: Blood was drawn from a male rabbit directly by cardiopuncture with a syringe containing 3.15% citric acid as an anticoagulant (one volume to 9 volumes of blood). By centrifugation at 800 rpm for 10 minutes at room temperature, platelet rich plasma (PRP) was obtained. The residual blood was centrifuged again at 3000 rpm for 10 minutes to give platelet poor plasma (PPP) as the supernatant. PRP was diluted with PPP so that the platelet count might be adjusted to about 500,000 cells/μl. 250 μl of this PRP was stirred at 37° C. for 2 minutes, and the test substance [the compound (6) obtained in Production Example 1] was added. The mixture was stirred again for 2 minutes, followed by the addition of PAF of a certain concentration. Platelet aggregation was measured with a platelet aggregometer (manufactured by Rika Denki Co. in Japan). The aggregation inhibition by the test substance was determined as the percentage of reduction from the maximal transmittance (the maximal aggregation) by PAF in the control PRP.

[4] = system: PAF-induced airway constriction; assay: Inhibition of PAF in tracheal obstruction (PAF-induced airway constriction); assay type: in vivo, guinea pig (Hartley); details: 0.03 mg/kg i.v., two minutes before PAF (0.3 μg/kg i.v.)
Protocol: Male and female Hartley guinea pigs weighing about 400 g each were used. The animal was fixed in the supine position under anesthesia with urethane (1.5 g/kg, i.p.), one of the 4 branches of a cannula was inserted into the trachea, and two of the other 3 branches were connected to a respirator (Harvard apparatus rodent respirator). The last branch was connected to a bronchospasm transducer 7020 (Ugobasile). Air was pumped into the lung at the rate of 5 to 7 ml at a time and 70 times per minutes at the loading pressure to the lung of 10 cm H2 O, and the volume of the overflown air was recorded via a transducer on the Rectigraph (Rectigraph-8S, San-ei Sokki). After treatment with gallamine triethodide (1 mg/kg, i.v.), histamine dihydrochloride (10 μg/kg) was intravenously injected, and the responsiveness of the animal was investigated. Thirty seconds after intravenous injection of PAF (0.3 μg/kg), a maximal airway constriction was observed. Under the conditions, the test substance [the compound (6) obtained in the Production Example 1] was examined for its inhibitory action. The test substance was dissolved in physiological saline, and given intravenously two minutes before PAF administration.

[5] = system: endotoxin-induced disseminated intravascular coagulation (DIC); assay: Inhibition of experimental disseminated intravascular coagulation (DIC) in rats; assay type: in vivo, rat (SD)
Protocol: Method: Male SD rats were anesthetized with sodium pentobarbital. Endotoxin (E. Coli, 0111, B4) (ET) was infused into the right femoral vein at a rate of 250 μg/kg/hr for 4 hr. The compound (6) obtained in the Production Example 1 (Test compound) at a dose of 200 μg/kg was given i.v. bolus 5 min. before the infusion of ET and was then infused at a rate of 200 μg/kg/hr for 4 hr.

[6] = system: death induced by anaphylactic shock; assay: Protective effect against death induced by anaphylactic shock in mice; assay type: in vivo; details: Mus musculus, iv, 1 h; i.v. 5 min before rechallenge with BSA (1 mg/kg, i.v.); survival at 60 min; read-out: ED50 (protection from anaphylactic shock)
Protocol: Method: Male mice were sensitized with bovine serum albumin (BSA) and killed Bordetella pertussis. Two to three weeks later, the mice were rechallenged with BSA (1 mg/kg, i.v.). Survival rate was determined 60 min after the injection of BSA. The compound (6) obtained in the Production Example 1 was given i.v. 5. min. before the rechallenge with BSA.

[7] = system: acute renal failure; assay: Effect on acute renal failure in rats (renal artery occlusion/reperfusion); assay type: in vivo, rat (Sprague Dawley (Jcl)); details: 30 mg/kg oral, 1 hour prior to occlusion
Protocol: Method: Male Sprague Dawley (Jcl) rats, 5 weeks old, were anesthetized with sodium pentobarbital (50 mg/kg, i.p.) and the renal artery was occluded bilaterally for 45 minutes followed by reperfusion for 20 hours. The blood was collected from the abdominal aorta under anesthesia for measurement of blood urea nitrogen (BUN).
Results: The concentration of BUN was markedly elevated 20 hours after reperfusion.

[8] = system: endotoxin (ET)-induced hypotension; assay: Reversal of endotoxin (ET)-induced hypotension in rats; assay type: in vivo, rat (SD); details: Rattus norvegicus, iv; given eight minutes after ET (15 mg/kg)
Protocol: Method: Male SD rats were anesthetized with sodium pentobarbital, and the right femoral artery and left femoral vein were cannulated for blood pressure measurement and for injection of the compound (6) obtained in the Production Example 1 or ET (E. Coli, 0111, B4), respectively. The compound (6) obtained in the Production Example 1 was given eight minutes after the injection of ET (15 mg/kg).

[9] = Acute toxicity in mice; assay type: in vivo, mouse (Jcl-ICR)
From the text: Male J cl-ICR mice (5 animals) (aged 5 weeks) were used.

[10] = Stability test in the form of powders (30 days of storage, HPLC content); assay type: physicochemical; details: for remaining at 720 h: 30 days, powder in closed glass bottles, read-out: remaining percentage
Protocol: The compounds obtained were examined for their stability in the form of powders. […] Procedure: About 100 mg each of the test substance was placed into glass bottles, which were then closed tightly and kept at room temperature (20±2° C.) and at 40° C. (not for the control compound) for 30 days. Determination of the content: An aliquot of the test substance was dissloved in the mobile phase for high performance liquid chromatography [acetonitrile:methanol:0.1% phosphoric acid=900:240:2100] and the content was determined by HPLC.
Conditions of HPLC: column YMC ODS A302 4.6×150 mm

[11] = system: PAF-induced hypotension; assay: Inhibitory action on PAF-induced hypotension in rats; assay type: in vivo, rat (Sprague-Dawley); details: for Inhibition of hypotensive effect: PAF 1 μg/kg i.v.
Protocol: Male Sprague-Dawley rats weighing about 250 g were used. Cannulas were inserted into the unilateral femoral artery for measurement of blood pressure and into the unilateral femoral vein for administration of the drug solution. Blood pressure was measured via a pressure transducer and recorded on a polygraph. Blood pressure decrease was measured after intravenous (i.v.) injection of PAF at 1 μg/kg, and then the test substance [the compound (6) in Production Example 1] was given intravenously or orally; PAF at 1 μg/kg was given intravenously 5 minutes and 1, 2, 4, 6, and 8 hours after the intravenous injection, and 1, 2, 4, 6 and 8 hours after the oral administration, and the blood pressure decrease was measured.
The inhibitory action on PAF-induced hypotension was expressed in the ratio of decrement of blood pressure due to PAF before the treatment with the test substance (mmHg) to the decrement after the treatment with the test substance (mmHg).

SMILES: CCC[n+]1cc(Br)cc(C(=O)N(CCC(=O)NCCOC(=O)N2CCc3ccccc3C2)c2ccccc2)c1.O=[N+]([O-])[O-] [Compound (6), 3-bromo-5-[N-phenyl-N-[2-[[2-(1,2,3,4-tetrahydro-2-isoquinolylcarbonyloxy)ethyl]carbamoyl]ethyl]carbamoyl]-1-propylpyridinium nitrate]
- ED50 [1]: 1.2 µg/kg
- Survival rate ([2]; 10 μg/kg i.v. 5 min before ET 15 mg/kg i.v., 6 day): 30%
- Survival rate ([2]; 100 μg/kg i.v. 5 min before ET 15 mg/kg i.v., 22 hr, P<0.05 vs control): 60%
- Survival rate ([2]; 100 μg/kg i.v. 5 min before ET 15 mg/kg i.v., 6 day, P<0.05 vs control): 40%
- effect on survival rate of rats (in words) ([2]; 100 μg/kg, almost 1 week): significantly improved the survival rate
- inhibition at 3 µM ([3]; 3 × 10^-6 M): 100%
- inhibition at 0.3 µM ([3]; 3 × 10^-7 M): 100%
- inhibition at 0.03 µM ([3]; 3 × 10^-8 M): 71%
- inhibition of PAF-induced airway constriction [4]: 91.3%
- Fybrinogen ([5]; 200 μg/kg before ET, then 200 μg/kg/hr for 4 hr, P<0.01 vs control, control 0.3 ± 0.1, normal 2.7 ± 0.1): 1.2 ± 0.3 mg/ml plasma
- FDP ([5]; 200 μg/kg before ET, then 200 μg/kg/hr for 4 hr, P<0.01 vs control, control 16.8 ± 2.3, normal 0.5 ± 0.0): 4.6 ± 0.8 μg/ml plasma
- PT (prothrombin time) ([5]; 200 μg/kg before ET, then 200 μg/kg/hr for 4 hr, P<0.01 vs control, control 18.9 ± 1.3, normal 11.2 ± 0.2): 14.0 ± 0.4 s
- Platelets ([5]; 200 μg/kg before ET, then 200 μg/kg/hr for 4 hr, P<0.01 vs control, control 23 ± 3, normal 71 ± 3): 40 ± 4 × 10^4 /μl
- APTT (activated partial thromboplastin time) ([5]; 200 μg/kg before ET, then 200 μg/kg/hr for 4 hr, P<0.01 vs control, control 58.3 ± 3.6, normal 35.3 ± 1.3): 42.8 ± 1.5 s
- effect on changes in DIC parameters (in words) ([5]; 200 μg/kg i.v. bolus + 200 μg/kg/hr for 4 hr): significantly inhibited the changes in these DIC parameters
- ED50 [6]: 2.6 µg/kg
- effect on elevation of BUN (in words) [7]: inhibited significantly the elevation of BUN
- Blood urea nitrogen (BUN) ([7]; 20 hours after reperfusion, P<0.05, control 110 ± 4): 88 ± 2 mg/dL
- ED50 [8]: 1.2 µg/kg
- death until one week later (acute toxicity, intravenous) ([9]; 10 mg/kg intravenously, male mice, 5 animals): no death was observed
- death until one week later (acute toxicity, oral) ([9]; 1000 mg/kg orally, male mice, 5 animals): no death was observed
- toxicity (in words) ([9]; general statement): low toxicity
- stability (in words) ([10]; general statement, compared with the corresponding chloride): more stable than the corresponding chloride
- remaining at 720 h ([10]; powder, closed glass bottles, at 40° C.): 99.3%
- remaining at 720 h ([10]; powder, closed glass bottles, at room temperature (20±2° C.)): 100%
- Inhibition of hypotensive effect ([11]; 0.01 mg/kg i.v., 5 minutes): 93%
- Inhibition of hypotensive effect ([11]; 0.01 mg/kg i.v., 1 hour): 84%
- Inhibition of hypotensive effect ([11]; 0.01 mg/kg i.v., 2 hour): 68%
- Inhibition of hypotensive effect ([11]; 0.01 mg/kg i.v., 4 hour): 48%
- Inhibition of hypotensive effect ([11]; 0.01 mg/kg i.v., 6 hour): 44%
- Inhibition of hypotensive effect ([11]; 0.01 mg/kg i.v., 8 hour): 24%
- Inhibition of hypotensive effect ([11]; 1 mg/kg p.o., 1 hour): 69%
- Inhibition of hypotensive effect ([11]; 1 mg/kg p.o., 2 hour): 87%
- Inhibition of hypotensive effect ([11]; 1 mg/kg p.o., 4 hour): 82%
- Inhibition of hypotensive effect ([11]; 1 mg/kg p.o., 6 hour): 76%
- Inhibition of hypotensive effect ([11]; 1 mg/kg p.o., 8 hour): 69%
- PAF-antagonism after oral administration (in words) ([11]; general statement, oral): excellent PAF-antagonism even after oral administration

SMILES: CCC[n+]1cc(Br)cc(C(=O)N(CCC(=O)NCCOC(=O)N2CCc3ccccc3C2)c2ccccc2)c1 [Compound (7), 3-Bromo-5-[N-phenyl-N-[2-[[2-(1,2,3,4-tetrahydro-2-isoquinolylcarbonyloxy)ethyl]carbamoyl]ethyl]carbamoyl]-1-propylpyridinium chloride, reference compound]
- remaining at 720 h ([10]; at room temperature (20±2° C.)): 65%
